Assay results reported in the METLIN SMRT retention time set (Domingo-Almenara et al. 2019).

Experiment: gradient 5% acetonitrile 3 min, to 50% in 2 min, to 85% in 15 min, held 3 min, 100 µL/min
Conditions: column: Zorbax Extend-C18 2.1 x 50 mm; eluents: water / acetonitrile, 0.1% formic acid
In short: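 Values are retention times taken from adduct peaks that software picked and an analyst inspected. The pure standards were run as mixtures of ~100 molecules on HPLC linked to a quadrupole time-of-flight mass spectrometer, in positive and negative ionization mode. A Zorbax Extend-C18 column (2.1 × 50 mm, 1.8 μm) was used at 100 μL/min with water and acetonitrile, each including 0.1% formic acid.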

## CC1=NS(=O)(=O)N(C)C=C1C(=O)OCc1ccc(C#N)cc1
  RP-LC retention time: 842 s

## O=C(NC1CCCc2ccccc21)C1CCN(C(=O)c2cccn2-c2cccnc2)CC1 (centres undefined)
  RP-LC retention time: 742 s

## CN(C)c1cccc(C(=O)NCC(=O)N2CCCc3ccccc32)c1
  RP-LC retention time: 728 s

## O=C(CSc1ccncc1)NCc1cc(-c2ccco2)on1
  RP-LC retention time: 552 s

## CC(C)(C)OC(=O)NCc1nnc(C(F)(F)F)n1-c1ccccc1
  RP-LC retention time: 773 s

## COc1cccc(C2Cn3nnc(-c4nc(-c5ccc(OC(F)(F)F)cc5)no4)c3CO2)c1 (centres undefined)
  RP-LC retention time: 1310 s

## O=c1ccc(N2CCC(NS(=O)(=O)c3cccs3)C2)nn1CCOc1ccccc1 (centres undefined)
  RP-LC retention time: 801 s

## Cc1ncc2c(n1)C[C@@H]1CC[C@H]2N1C(=O)COc1ccc(F)cc1
  RP-LC retention time: 675 s

## CCOc1ccc(CNC(=O)CN2C(=O)CSc3cccn3-c3ccccc32)cc1
  RP-LC retention time: 914 s

## O=C(NCc1cccs1)C1CN(C(=O)c2cccs2)CC12CCCCC2 (centres undefined)
  RP-LC retention time: 856 s

## O=C(CSc1nnc2ccc(-c3cccc([N+](=O)[O-])c3)nn12)c1cccs1
  RP-LC retention time: 774 s

## Cc1ccc(-n2c(=O)c3c(cc(C)n3C)n(CC(=O)Nc3ccccc3C)c2=O)cc1
  RP-LC retention time: 846 s

## Cc1cc(Cl)ccc1S(=O)(=O)Nc1ccc(Cn2cncn2)cc1
  RP-LC retention time: 782 s

## CN(C)C(=O)c1ccc2c(c1)N(CC(=O)NCCCN1CCOCC1)C(=O)C1CCCCN21 (centres undefined)
  RP-LC retention time: 593 s

## Cc1cccc(NC(=O)N(C)CCc2noc(COc3ccccc3)n2)c1C
  RP-LC retention time: 913 s

## O=C1CCN(C(=O)c2ccoc2)CCCCCCN1
  RP-LC retention time: 617 s

## CCC1Oc2ccc(S(=O)(=O)N3CCC(C(=O)Nc4ccccc4F)CC3)cc2NC1=O (centres undefined)
  RP-LC retention time: 812 s

## O=C(c1cc(-c2cccc(F)c2)ns1)N1CCCC1
  RP-LC retention time: 924 s

## Cc1sc(NC(=O)Cn2c(=O)oc3ccccc32)nc1-c1ccc(Cl)cc1
  RP-LC retention time: 1060 s

## COc1cc2c(cc1NC(=O)c1ccco1)n(C)c(=O)n2C
  RP-LC retention time: 688 s

## Cn1nc(-c2nc(-c3ccc(F)cc3)no2)c2c1CCN(C(=O)NC(C)(C)C)C2
  RP-LC retention time: 966 s

## Cc1cccc(CN2CCN(CC(=O)NC3CCN(Cc4ccccc4)CC3)C(=O)C2=O)c1
  RP-LC retention time: 609 s

## O=C(CN1CCN(c2ccccc2)CC1)Nc1nc(-c2ccccc2)cs1
  RP-LC retention time: 740 s

## CCC(C)NC(=O)c1ccc2c(c1)Sc1ncccc1C(=O)N2C(C)C (centres undefined)
  RP-LC retention time: 784 s

## CCCn1nc2n(c1=O)CCN(Cc1cn[nH]c1-c1cc(OC)ccc1OC)C2
  RP-LC retention time: 616 s

## Cc1ccccc1NC(=O)Cn1cnc2nc(N3CCCC(C(=O)NC4CC4)C3)sc2c1=O (centres undefined)
  RP-LC retention time: 644 s

## CCC(C)NC(=O)c1ccc2c(c1)N(C)C(=O)CS2 (centres undefined)
  RP-LC retention time: 734 s

## CC1CCC2(CC1)NC(=O)N(CC(=O)NCCc1ccc(Cl)cc1)C2=O (centres undefined)
  RP-LC retention time: 863 s

## CCCNC(=O)C1CCCN(c2nc3ncn(CC(=O)NCc4ccc(C)cc4)c(=O)c3s2)C1 (centres undefined)
  RP-LC retention time: 715 s

## CCCNC(=O)C1CCN(c2ccc(SCC(=O)Nc3ccc(C)c(Cl)c3)nn2)CC1
  RP-LC retention time: 715 s

## Cc1ccsc1CCNC(=O)Cn1nc(C(=O)N2CCCC2)c2ccccc21
  RP-LC retention time: 824 s

## CC(C)c1ccc(NC(=O)N2CCN(c3ccc4nncn4n3)CC2)cc1
  RP-LC retention time: 672 s

## CC(NC(=O)C1CCN(C(=O)c2ncn3c2COC(c2ccc(F)cc2)C3)CC1)c1ccccc1 (centres undefined)
  RP-LC retention time: 809 s

## COc1ccc2c(c1)CCc1sc(NC(=O)c3cccc(Cl)c3)nc1-2
  RP-LC retention time: 1180 s

## Cc1ccc(Nc2nc(C)cc(N3CCN(C(=O)Nc4ccc(F)c(Cl)c4)CC3)n2)cc1
  RP-LC retention time: 811 s

## COc1ccc(OC)c(CNC(=O)c2cn3cc(C)ccc3n2)c1
  RP-LC retention time: 694 s

## COc1ccc(Cl)cc1NC(=O)C1CCN(S(=O)(=O)c2ccc3c(c2)NC(=O)CO3)CC1
  RP-LC retention time: 880 s

## O=S(=O)(c1cccc(F)c1)N1CCN(c2cnn3c(C4CC4)nnc3c2)CC1
  RP-LC retention time: 626 s

## CCCCOc1ccc(CNC(=O)CN2CC=C(c3cnn(-c4ccc(C)c(C)c4)c3)CC2)cc1
  RP-LC retention time: 924 s

## COc1ccc(Br)cc1CNC(=O)Cn1cnc2nc3c(cc2c1=O)CC(C)CC3 (centres undefined)
  RP-LC retention time: 845 s

## O=C(NCc1cccs1)c1ccc2nc(CCc3ccccc3)oc2c1
  RP-LC retention time: 979 s

## CCC(=O)Nc1ccc(-n2cnc(C(=O)NCc3ccc(F)c(Cl)c3)c2)nc1
  RP-LC retention time: 760 s

## CCn1cnc(S(=O)(=O)N2CCC(C(=O)NCc3cccc(C)c3)CC2)c1
  RP-LC retention time: 721 s

## Cc1ccc(-c2ccc(N3CCCC(C(=O)NC4CCCC4)C3)nn2)cc1 (centres undefined)
  RP-LC retention time: 696 s

## CCN1CCn2cc(S(=O)(=O)Nc3ccc(Cl)cc3)cc2C1=O
  RP-LC retention time: 766 s

## CCC(=O)N1CCc2sc(S(=O)(=O)N3CCN(c4ccc(C)cc4)CC3)cc2C1
  RP-LC retention time: 1000 s

## CCOC(=O)C1CCN(C(=O)C2CCCN(S(=O)(=O)c3ccc(OC)c(Cl)c3)C2)CC1 (centres undefined)
  RP-LC retention time: 940 s

## CC(=O)NCC(=O)NCc1nn(CC(C)C)c2ccccc12
  RP-LC retention time: 670 s

## CCC(C(=O)Nc1cc(-c2nc3ccccc3[nH]2)ccc1C)c1ccccc1 (centres undefined)
  RP-LC retention time: 755 s

## Cc1cc(C)cc(OCc2nc(CCN(C)C(=O)c3ccco3)no2)c1
  RP-LC retention time: 873 s

## CN1C(=O)c2cccn2CC1C(=O)N1CCc2ccccc21 (centres undefined)
  RP-LC retention time: 703 s

## Cc1cc(NC(=O)C2CCc3nc(N4CCOCC4)ncc3C2)ccc1F (centres undefined)
  RP-LC retention time: 797 s

## Cc1cn(C)c(CC(=O)Nc2ccc(Cl)cc2)c1C(=O)O
  RP-LC retention time: 804 s

## CCCN(C(=O)Cc1ccc(OC)c(OC)c1)c1nc(-c2ccc(C)cc2)cs1
  RP-LC retention time: 1310 s

## Cc1ccc(C)c(CNC(=O)c2c(C)sc3ccn(C)c(=O)c23)c1
  RP-LC retention time: 848 s

## Cc1ccccc1NC(=O)C1CCN(S(=O)(=O)c2ccc3c(c2)NC(=O)C(C)O3)CC1 (centres undefined)
  RP-LC retention time: 815 s

## O=C(c1cccc(Br)c1)N1CCc2nc(-c3ccccc3)ncc2C1
  RP-LC retention time: 1020 s

## CCOc1ccccc1NC(=O)N(Cc1cccs1)C1CCN(CC)CC1
  RP-LC retention time: 698 s

## O=C(Nc1nc2ccccc2[nH]1)c1ccc(Br)cc1
  RP-LC retention time: 710 s

## Cc1ccc(S(=O)(=O)N2CCC(C)CC2)cc1-c1nnc(-c2ccccc2)o1
  RP-LC retention time: 1180 s

## CCC(=O)N(C1CCOCC1)C1CCN(S(=O)(=O)c2ccc(OC)cc2)CC1
  RP-LC retention time: 800 s

## COc1ccc(C2CCCN2C(=O)c2cnn3cccnc23)cc1 (centres undefined)
  RP-LC retention time: 694 s

## O=S(=O)(NCc1ccco1)c1ccc(Cl)c(-c2nnc(-c3ccccc3)o2)c1
  RP-LC retention time: 980 s

## O=C(Nc1nnc(C2CC(=O)N(c3ccccc3)C2)o1)c1cccc(Cl)c1 (centres undefined)
  RP-LC retention time: 767 s

## COc1ccc(C(=O)N2CCC(c3noc(-c4ccncc4)n3)C2)cn1 (centres undefined)
  RP-LC retention time: 673 s

## CN1C2CCC1CC(OC(c1ccccc1)c1ccc(Cl)cc1)C2 (centres undefined)
  RP-LC retention time: 862 s

## N#CCCSc1nnc2sc3ccccc3n12
  RP-LC retention time: 828 s

## CCN1CCN(c2cc(C)c3cc(NC(=S)NCc4ccc(C)cc4)ccc3n2)CC1
  RP-LC retention time: 617 s

## CCS(=O)(=O)N1CCC(N2C(=O)[C@H](OCCOC)[C@@H]2c2ccncc2)CC1
  RP-LC retention time: 561 s

## O=C(N1CCc2ccccc2C1)C1(c2ccc(F)cc2)CC1
  RP-LC retention time: 905 s

## COc1ccc(-c2cn3c(CC(=O)NCc4ccc(C)o4)csc3n2)cc1OC
  RP-LC retention time: 686 s

## CN1CCN(CCCNc2ccc(-c3nc(-c4ccc(F)cc4)no3)cn2)CC1
  RP-LC retention time: 626 s

## O=C(NC1CC1)c1n[nH]c2c1CCCCCC2
  RP-LC retention time: 719 s

## O=C(Nc1ccc(Br)cc1)Nc1c(-c2ccncc2)nc2ccccn12
  RP-LC retention time: 641 s

## O=C(NC1CC1)C1CCN(c2cnn(Cc3ccccc3)c(=O)c2)CC1
  RP-LC retention time: 681 s

## O=C(CC1CSc2ccccc2NC1=O)NC1CCCCCC1 (centres undefined)
  RP-LC retention time: 822 s

## O=C1CCC(c2ccccc2)=NN1c1nc2ccccc2s1
  RP-LC retention time: 884 s

## COc1ccc(NS(=O)(=O)c2ccc(-c3c(C)noc3C)cc2)cc1Cl
  RP-LC retention time: 945 s

## COc1ccc(-c2nc3n(n2)C2(CCCCC2)[C@@H]2CCCC[C@@H]2N3C(C)=O)cc1
  RP-LC retention time: 1330 s

## CCNc1cc(N2CCCC(CCC(=O)N3CCC(C)CC3)C2)ncn1 (centres undefined)
  RP-LC retention time: 676 s

## CC(=O)N1CCN(Cc2ccc([C@H](C)Nc3nccc(N4C(=O)OC[C@@H]4C(C)C)n3)cc2)CC1
  RP-LC retention time: 642 s

## O=C(CN1C(=O)C2CCCCN2c2ccc(C(=O)N3CCCC3)cc21)NCCC1=CCCCC1 (centres undefined)
  RP-LC retention time: 914 s

## COC(=O)c1c(-c2ccccc2)noc1N1CCOCC1
  RP-LC retention time: 860 s

## COc1ccc(-c2ccnn2-c2ccc(SCC(=O)NC(C)C)nn2)cc1
  RP-LC retention time: 932 s

## Cc1ccc(NC(=O)N2CCC(n3cnc4ccc(F)cc4c3=O)CC2)cc1F
  RP-LC retention time: 842 s

## O=C1CC(c2noc(-c3cccc(OC(F)(F)F)c3)n2)CN1c1ccc(Cl)cc1 (centres undefined)
  RP-LC retention time: 1210 s

## O=C(NCc1ccc2c(c1)OCO2)C1CCN(c2nc3ccccc3o2)CC1
  RP-LC retention time: 754 s

## CCCCOc1ccc(-c2cc3c4nn(CC(=O)NC(C)C)c(=O)n4ccn3n2)cc1
  RP-LC retention time: 954 s

## O=C(c1ccc(N2CCCCS2(=O)=O)cc1)N1CCN(C(=O)c2ccco2)CC1
  RP-LC retention time: 609 s
